Test results published in publication PMC4823791, “A dual drug regimen synergistically blocks human parainfluenza virus infection” (Scientific Reports, 2016).

How the values were obtained:
[1] = biological target: T1, hPIV-3 HN (haemagglutinin-neuraminidase) (Human parainfluenza 3 virus (strain NIH 47885), UniProt P08492); assay: fluorogenic MUN neuraminidase inhibition assay; type: biochemical; settings: neuraminidase activity; 2 mM MUN, pH 4.6, 5 mM CaCl2, 37 °C, 30 min; PEG-precipitated intact virus; non-competitive
T1 sequence (P08492 whole entry): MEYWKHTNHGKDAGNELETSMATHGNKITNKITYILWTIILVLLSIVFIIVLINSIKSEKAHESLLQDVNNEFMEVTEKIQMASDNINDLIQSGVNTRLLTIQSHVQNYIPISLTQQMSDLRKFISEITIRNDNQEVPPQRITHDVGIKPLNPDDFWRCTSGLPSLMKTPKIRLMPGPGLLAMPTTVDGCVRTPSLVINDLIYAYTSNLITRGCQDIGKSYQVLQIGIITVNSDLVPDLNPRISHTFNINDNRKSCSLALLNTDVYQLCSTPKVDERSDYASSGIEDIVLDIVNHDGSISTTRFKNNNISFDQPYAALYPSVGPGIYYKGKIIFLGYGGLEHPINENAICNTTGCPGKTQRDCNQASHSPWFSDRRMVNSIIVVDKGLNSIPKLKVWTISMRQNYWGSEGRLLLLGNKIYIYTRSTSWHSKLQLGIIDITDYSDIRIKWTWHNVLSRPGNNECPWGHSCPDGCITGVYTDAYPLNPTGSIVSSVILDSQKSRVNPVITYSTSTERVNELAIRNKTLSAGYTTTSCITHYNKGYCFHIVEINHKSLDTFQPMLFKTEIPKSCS

[2] = biological target: T1, hPIV-3 HN (haemagglutinin-neuraminidase); assay: Lineweaver-Burk kinetics, MUN fluorescence; type: biochemical; settings: non-competitive; MUN 2-20 mM, suramin 0, 10, 16 μM; virus particles
[3] = biological target: T1, hPIV-3 HN (haemagglutinin-neuraminidase); assay: fluorogenic MUN neuraminidase inhibition screen; type: biochemical
Description: fluorogenic MUN neuraminidase inhibition screen on hPIV-3 HN (haemagglutinin-neuraminidase) | Evans blue and erythrosine sodium, with a neuraminidase inhibition of […]

[4] = biological target: T1, hPIV-3 HN (haemagglutinin-neuraminidase); assay: Lineweaver-Burk kinetics, MUN fluorescence; type: biochemical; settings: virus particles; MUN 2-20 mM, so Km lies above the tested range (extrapolated): unreliable
Method: Lineweaver-Burk kinetics, MUN fluorescence on hPIV-3 HN (haemagglutinin-neuraminidase) | constant (KM) value ... was calculated from this point of convergence

[5] = biological target: T1, hPIV-3 HN (haemagglutinin-neuraminidase); assay: STD-NMR; type: binding; settings: 5 mM zanamivir alone, 50 mM NaOAc, 5 mM CaCl2, pD 4.6, 283 K; purified UV-inactivated virus particles

## Cc1ccc(C(=O)Nc2ccc(S(=O)(=O)O)c3cc(S(=O)(=O)O)cc(S(=O)(=O)O)c23)cc1NC(=O)c1cccc(NC(=O)Nc2cccc(C(=O)Nc3cc(C(=O)Nc4ccc(S(=O)(=O)O)c5cc(S(=O)(=O)O)cc(S(=O)(=O)O)c45)ccc3C)c2)c1 [compound 7, suramin]
[1]
  IC50: 13.5 µM
[2]
  Ki: 5.06 ± 0.62 µM

## O=C1OC2(c3ccccc31)c1cc(I)c(O)c(I)c1Oc1c2cc(I)c(O)c1I [erythrosine sodium]
[3]
  inhibition at 100 µM: 92.8 ± 0.9%

## CC(=O)N[C@H]1[C@H]([C@H](O)[C@H](O)CO)O[C@@](Oc2ccc3c(C)cc(=O)oc3c2)(C(=O)O)C[C@@H]1O [compound 6, 2′-(4-methylumbelliferyl) α-D-N-acetylneuraminide]
[4]
  KM: 30.3 ± 1.02 mM

## CC(=O)N[C@H]1[C@H]([C@H](O)[C@H](O)CO)OC(C(=O)O)=C[C@@H]1N=C(N)N [compound 3, zanamivir]
[5]
  STD-NMR: STD-NMR signals of both drugs were obtained, thus confirming their binding to HN

## Cc1cc(-c2ccc(/N=N/c3ccc4c(S(=O)(=O)O)cc(S(=O)(=O)O)c(N)c4c3O)c(C)c2)ccc1/N=N/c1ccc2c(S(=O)(=O)O)cc(S(=O)(=O)O)c(N)c2c1O [Evans blue]
[3]
  inhibition at 100 µM: 79.4 ± 1.8%
